Laboratory results published in US11319341B2, “Immune-stimulating soluble doxorubicin-conjugated complex” (Yafei (Shanghai) Biopharmaceutical Co., Ltd., priority 2016, dated 2022).
Non-standard residues stand in square brackets, D forms with d. Residues, ends and D or L forms follow the SMILES beside them. ξ: configuration not given here. *: point of attachment. Doxorubicin(3'-N) = COc1cccc2c1C(=O)c1c(O)c3c(c(O)c1C2=O)C[C@@](O)(C(=O)CO)C[C@@H]3O[C@H]1C[C@H](N*)[C@H](O)[C@H](C)O1; Hexanoyl(6-maleimido) = O=C1C=CC(=O)N1CCCCCC(=O)*; Propanoyl(3-maleimido) = O=C1C=CC(=O)N1CCC(=O)*; PEG3 = NCCOCCOCCOCCC(=O)O; ξL = CC(C)CC(N)C(=O)O

Legend:
[1] = Water solubility of freeze-dried compounds in water (observation and HPLC)
[2] = system: acidized human breast cancer (MDA-MB435) tumor tissue homogenates; experiment: Activation efficiency of the linker by tumor tissue homogenates (HPLC); type: biochemical; settings: Table 4-1; 37° C., MDA-MB435 tumor tissue homogenates pH6.0, compound 1 mg/ml
Method: When the C selected AAN, The activation of different S-C-A linker and control linker was evaluated in the activation assay, The S-C-A conjugate was used to dissolve and they were diluted for ten times to a concentration of 0.1 mM/ml. At 37° C., sample compounds were added into 100 μg acidized human breast cancer (MDA-MB435) tumor tissue homogenates (pH6.0) in a concentration of 1 mg/ml. The enzyme in tumor tissue homogenates could release and detected by HPLC, thereby comparing the activation efficiency of the linker by the tumor tissue.

[3] = system: Human liver cancer HepG2 cells; experiment: Efficacy on human liver cancer HepG2 cells in nude mice; type: in vivo; settings: 54 umol/kg IV once weekly for four weeks
Excerpt: Test purpose: to investigate the anti-tumor efficacy of some compounds of the invention in mice model for tumor treatment.
Test drug: QHL-095, QHL-008, QHL-086, QHL-116, QHL-119, QHL-092, QHL-006, QHL-089, QHL-005, QHL-007, QHL-096, QHL-012, QHL-087, QHL-117, QHL-120, QHL-093, QHL-010, QHL-090, QHL-009, QHL-011 injections and control group injection, diluted to corresponding concentrations by physiological saline when testing.
(§1) 1. Animal: nude mice of 6-8 weeks old, all female.
1) Human liver cancer HepG2 cells were purchased from American type culture collection (ATCC) and identified according the specification provided by ATCC.
(§2) 2) Production of tumor. […] Mice were randomly grouped after the tumor reached at least 100 mm^3. Then treatment began and the day on which the treatment began was day 1.
According to the clinical application of QHL-095, QHL-008, QHL-086, QHL-116, QHL-119, QHL-092, QHL-006, QHL-089, QHL-005, QHL-007, QHL-096, QHL-012, QHL-087, QHL-117, QHL-120, QHL-093, QHL-010, QHL-090, QHL-009, QHL-011, drugs were intravenously injected (IV). Compounds and control groups were administered in a dose of 54 umol/kg. The control group was administered by physiological saline. Drugs were administered once weekly for four weeks.

HT1080 cells = experiment: Efficacy in HT1080 tumor model; type: in vivo; settings: HT1080, nude mice, 18 umol/kg IV once weekly for 3 weeks
Excerpt: Test purpose: to investigate the anti-tumor efficacy of QHL-086, QHL-092, QHL-095, QHL-087, QHL-010, QHL-117 in mice model for tumor treatment.
Test drug: C3, QHL-086, QHL-092, QHL-095, QHL-087, QHL-010, QHL-117 injections and mitomycin injection, diluted to corresponding concentrations by physiological saline when testing.
as §1
1) HT1080 cells were purchased from American type culture collection (ATCC) and identified according the specification provided by ATCC.
as §2
According to the clinical application of C3, QHL-086, QHL-092, QHL-095, QHL-087, QHL-010, QHL-117 were intravenously injected (IV). C3, QHL-086, QHL-092, QHL-095, QHL-087, QHL-010, QHL-117 were administered in a low and same dose of 18 umol/kg. The control group was administered by physiological saline. Drugs were administered once weekly for 3 weeks.

tumor CD8+ T cells = experiment: CT26 tumor immune model: tumor CD8+ T cells (CD8 positive in CD45 positive cells, flow cytometry); type: in vivo, BALB/c mice; settings: ratio of CD8 positive cells in CD45 positive cells in tumor, compounds 18 μmol/kg, PD-1 antibody 5 mg/kg
Method: (§3) 2) 5×10^5CT26 cancer cells were subcutaneously injected to the back of the nude mice. Mice were randomly grouped after the tumor reached at least 100 mm^3 Then treatment began and the day on which the treatment began was day 1.
3) Analysis on tumor CD8+ T cells. The tumor tissue was homogenated and individual cells in the tumor were filtered, separated and washed by buffer twice, then cultivated with the leucocyte common antigen CD45-PE and CD8-FITC marked antibodies for 1 hour at ambient temperature. The cells were washed by phosphate buffer containing 1% fetal bovine serum twice and then analyzed for the ratio of the T lymphocyte antigen (CD8) positive cells in the leucocyte common antigen (CD45) positive cells by flow cytometry.

[4] = Tissue distribution of released doxorubicin in orthotopic transplantation CT26 tumor in liver; settings: tissues at 1-72 hr, FIG. 2, FIG. 3
Method: Production of tumor model: CT26 tumor cells were purposed from ATCC. Cells were cultivated in DMEM culture solution containing 10% fetal bovine serum at 37° C. and 5% CO2. The cells were passaged for every three days and cells within the 15th passage were used.
5×10^5CT26 cancer cells were subcutaneously injected to the back of the nude mice. Mice were randomly grouped after the tumor reached 800-1000 mm^3. Then extract the tumor tissue and cleave to 100 mm3 tumor tissue block and orthotopic transplant into BALB/c mice liver. After 14 days, when orthotopic transplantation tumor grow up, 36 mice with orthotopic transplantation tumor for a group are treated with drug. Then collect the different tissue at 1, 6, 12, 24, 36, 72 hr to detect the concentration of releasing doxorubicin in different tissue.

CT26 tumor cells = experiment: CT26 tumor immune model: inhibition of tumor; type: in vivo; settings: CT26 subcutaneous tumor, BALB/c mice, compounds 18 μmol/kg, mouse PD-1 antibody 5 mg/kg
Method: Test purpose: to investigate the anti-tumor efficacy of different compounds in CT26 cancer model for immune treatment.
1) CT26 tumor cells were purposed from ATCC. Cells were cultivated in DMEM culture solution containing 10% fetal bovine serum at 37° C. and 5% CO2. The cells were passaged for every three days and cells within the 15th passage were used.
as §3

| SMILES | solubility [1] [µg/mL] | Activation (%) [2] [%] | Size of tumor (mm^3) Day 28 [3] [mm^3] | inhibitory rate on tumor Day 28 [3] [%] | Size of tumor (mm^3) Day 28 (HT1080 cells) [mm^3] | inhibitory rate on tumor Day 28 (HT1080 cells) [%] | CD8:CD45 (%) (tumor CD8+ T cells) | active doxorubicin tissue distribution, in words [4] | inhibitory rate on tumor % Day 18 (CT26 tumor cells; Day 18 as printed) [%] | Size of tumor (mm^3) Day 28 (CT26 tumor cells; Day 28) [mm^3] | solubility (physchem) [µg/mL] |
| --- | --- | --- | --- | --- | --- | --- | --- | --- | --- | --- | --- |
| COc1cccc2c1C(=O)c1c(O)c3c(c(O)c1C2=O)C[C@@](O)(C(=O)CO)C[C@@H]3O[C@H]1C[C@H](NC(=O)C(CC(C)C)NC(=O)[C@H](CC(N)=O)NC(=O)[C@H](C)NC(=O)[C@H](C)N)[C@H](O)[C@H](C)O1 (stereo partly shown) [C2 AANL-DOX] (H-AAN[ξL]-{Doxorubicin(3'-N)}) | < 1000 | 42.1 | 1564 ± 689.4 | 46.0 | 318.5 ± 197.6 | 81.8 | – | – | – | – | – |
| COc1cccc2c1C(=O)c1c(O)c3c(c(O)c1C2=O)C[C@@](O)(C(=O)CO)C[C@@H]3O[C@H]1C[C@H](NC(=O)[C@H](CC(C)C)NC(=O)[C@H](CC(N)=O)NC(=O)[C@H](C)NC(=O)[C@H](C)NC(=O)CCCCCN2C(=O)C=CC2=O)[C@H](O)[C@H](C)O1 [C3 EMC-AANL-DOX] | < 5000 | 56.4 | 218.3 ± 167.7 | 92.5 | 138.3 ± 124.6 | 92.1 | 8.9 | major in orthotopic tumor in liver | 66.9 | 624.5 ± 313.6 | – |
| COc1cccc2c1C(=O)c1c(O)c3c(c(O)c1C2=O)C[C@@](O)(C(=O)CO)C[C@@H]3O[C@H]1C[C@H](N)[C@H](O)[C@H](C)O1 [C1 DOX, Doxorubicin] | – | – | 1683.4 ± 1087.4 | 41.9 | 754.4 ± 587.4 | 56.8 | – | – | – | – | – |
| COc1cccc2c1C(=O)c1c(O)c3c(c(O)c1C2=O)C[C@@](O)(C(=O)CO)C[C@@H]3O[C@H]1C[C@H](NC(=O)[C@H](CC(C)C)NC(=O)[C@H](CC(N)=O)NC(=O)[C@H](C)NC(=O)[C@H](C)NC(=O)CCOCCOCCOCCNC(=O)CCN2C(=O)C=CC2=O)[C@H](O)[C@H](C)O1 [QHL-090] ({Propanoyl(3-maleimido)-PEG3}-AANL-{Doxorubicin(3'-N)}) | > 10000 | – | – | – | – | – | – | – | – | – | – |
| COc1cccc2c1C(=O)c1c(O)c3c(c(O)c1C2=O)C[C@@](O)(C(=O)CO)C[C@@H]3O[C@H]1C[C@H](NC(=O)[C@H](CC(C)C)NC(=O)[C@H](CC(N)=O)NC(=O)[C@H](C)NC(=O)[C@H](C)NC(=O)[C@@H](NC(=O)CCCCCN2C(=O)C=CC2=O)C(C)C)[C@H](O)[C@H](C)O1 [QHL-123] ({Hexanoyl(6-maleimido)}-VAANL-{Doxorubicin(3'-N)}) | – | – | – | – | – | – | – | – | – | – | > 2000 |
